The record followed here is US20210038628A1, “NANOPARTICLE COMPOSITIONS” (JANUARY THERAPEUTICS, INC., priority 2018, published 2021).

SMILES strings stand for the structures. Counter-ions that a name gives are not always drawn. A value given as a limit tells only on which side of the number the result lay.

In the experiment the test system is BxPC-3 (pancreatic adenocarcinoma) cell line. Kind of experiment: Cellular proliferation assay in BxPC-3 cells (Cell-Titer Glo). Format: cell-based. Particulars: Homo sapiens, 120 hours incubation, Cell-Titer Glo luminescence. The method, then: Compounds are tested for their ability to impair cancer cell proliferation and/or induce cell death. For cellular proliferation studies, cultured cells are treated with the test compound for 24-120 hours. After compound treatment, cell proliferation is assessed by using methods including, but not limited to, Cell-Titer-Glo® (Promega), Alamar Blue, LIVE/DEAD® (ThermoFisher), BrdU incorporation, and live-cell imaging. The cancer lines used include, but are not limited to BxPC-3 (pancreatic cancer). Gemcitabine Hydrochloride serves as a control for activity.
BxPC-3 (pancreatic adenocarcinoma) cell line was purchased from the American Type Culture Collection (Catalog #CRL-1687) and grown in RPMI-1640 medium (e.g. Corning #10-040-CV) with 10% Heat Inactivated Fetal Calf Serum at 37° C. and 5% CO2 (as recommended by the ATCC).
Cultures were grown in […] plates to 80% confluence, and cells were trypsinized to a single-cell suspension. Cells were then resuspended in growth medium to a density of […]. They were then plated into 96-well assay plates (Corning #3917) in a volume of 100 ul/well (2,500 cells/well). Cells were allowed to adhere to plates for 24 h at 37° C. and 5% CO2). Compounds were then added to the wells using an […] serial dilution scheme (over 9 dilutions, generally ranging from 30 μM-30 pM), and the cells were incubated for an additional 120 hours. After 120 h, 90 ul of Cell-Titer Glo reagent (Promega #G7572) was added, and the plates were read using a luminescence counter (e.g., BioTek Synergy HTX at 100 ms read time).

`CCCCCCCCCCCCCCCCCCC(=O)O[C@@H]1[C@@H](COP2(=O)OCc3ccccc3O2)O[C@@H](n2ccc(N)nc2=O)C1(F)F` (stereo partly drawn) [Compound 16, (2R,3R,5R)-5-(4-amino-2-oxopyrimidin-1(2H)-yl)-4,4-difluoro-2-(((2-oxido-4H-benzo[d][1,3,2]dioxaphosphinin-2-yl)oxy)methyl)tetrahydrofuran-3-yl Nonadecanoate]: the EC50 (in general, the concentration that produces a half-maximal response) was under 1 nM.

As to `CCCCCCCCCCCCC(=O)O[C@@H]1[C@@H](COP(=O)(OCOC(=O)CC(C)(C)C)OCOC(=O)CC(C)(C)C)O[C@@H](n2ccc(N)nc2=O)C1(F)F` [Compound 17], the EC50 was in the range of 1 to 10 nM.

Consider `CCCCCCCCCCCCCCC(=O)OC1[C@@H](COP(=O)(OCOC(=O)CC(C)(C)C)OCOC(=O)CC(C)(C)C)O[C@@H](n2ccc(N)nc2=O)C1(F)F` (stereo partly shown) [Compound 27], for which the EC50 is under 1 nM.

Consider `Nc1ccn([C@@H]2O[C@H](CO)[C@@H](O)C2(F)F)c(=O)n1` [Gemcitabine Hydrochloride, reference compound], for which the EC50 was in the range of 1 to 10 nM.
